Source: PubChem BioAssay (NCI)
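In this assay, cells in 96-well plates receive the compound at five concentrations for 48 hours. Endpoints are linearly interpolated between the surrounding concentrations. TGI: concentration producing complete growth inhibition.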

How the values were obtained:
Test in all cases: NCI anticancer screen, dose series, 48 h
ACHN renal = tested on: ACHN renal
CAKI-1 renal = tested on: CAKI-1 renal
CCRF-CEM leukemia = tested on: CCRF-CEM leukemia
COLO 205 colon = tested on: COLO 205 colon
DLD-1 colon = tested on: DLD-1 colon
DMS 114 small cell lung = tested on: DMS 114 small cell lung
EKVX NSCLC = tested on: EKVX NSCLC
HCC-2998 colon = tested on: HCC-2998 colon
HCT-116 colon = tested on: HCT-116 colon
HCT-15 colon = tested on: HCT-15 colon
HL-60(TB) leukemia = tested on: HL-60(TB) leukemia
HOP-18 NSCLC = tested on: HOP-18 NSCLC
HOP-62 NSCLC = tested on: HOP-62 NSCLC
HOP-92 NSCLC = tested on: HOP-92 NSCLC
HT29 colon = tested on: HT29 colon
IGROV1 ovarian = tested on: IGROV1 ovarian
K-562 leukemia = tested on: K-562 leukemia
KM12 colon = tested on: KM12 colon
LOX IMVI melanoma = tested on: LOX IMVI melanoma
LXFL 529 NSCLC = tested on: LXFL 529 NSCLC
M14 melanoma = tested on: M14 melanoma
M19-MEL melanoma = tested on: M19-MEL melanoma
MALME-3M melanoma = tested on: MALME-3M melanoma
MOLT-4 leukemia = tested on: MOLT-4 leukemia
NCI-H226 lung = tested on: NCI-H226 lung
NCI-H23 lung = tested on: NCI-H23 lung
NCI-H460 lung = tested on: NCI-H460 lung
OVCAR-3 ovarian = tested on: OVCAR-3 ovarian
OVCAR-4 ovarian = tested on: OVCAR-4 ovarian
OVCAR-5 ovarian = tested on: OVCAR-5 ovarian
OVCAR-8 ovarian = tested on: OVCAR-8 ovarian
RXF 393 renal = tested on: RXF 393 renal
RXF-631 renal = tested on: RXF-631 renal
SF-268 CNS = tested on: SF-268 CNS
SF-295 CNS = tested on: SF-295 CNS
SK-MEL-2 melanoma = tested on: SK-MEL-2 melanoma
SK-MEL-28 melanoma = tested on: SK-MEL-28 melanoma
SK-OV-3 ovarian = tested on: SK-OV-3 ovarian
SN12C renal = tested on: SN12C renal
SNB-19 CNS = tested on: SNB-19 CNS
SNB-78 CNS = tested on: SNB-78 CNS
SR leukemia = tested on: SR leukemia
SW-620 colon = tested on: SW-620 colon
U251 CNS = tested on: U251 CNS
UACC-257 melanoma = tested on: UACC-257 melanoma
UACC-62 melanoma = tested on: UACC-62 melanoma
UO-31 renal = tested on: UO-31 renal
786-0 renal = tested on: 786-0 renal
A498 renal = tested on: A498 renal
A549 NSCLC = tested on: A549 NSCLC
DMS 273 small cell lung = tested on: DMS 273 small cell lung
KM20L2 colon = tested on: KM20L2 colon
NCI-H522 lung = tested on: NCI-H522 lung
RPMI-8226 leukemia = tested on: RPMI-8226 leukemia
SF-539 CNS = tested on: SF-539 CNS
SK-MEL-5 melanoma = tested on: SK-MEL-5 melanoma
SNB-75 CNS = tested on: SNB-75 CNS
TK-10 renal = tested on: TK-10 renal

Measured: TGI

CC/C(CC(=O)CCC(=O)Nc1ccc(C)c(C)c1)=N\NC(=O)c1cc2ccccc2cc1O
66.7 µM: RXF 393 renal
57.5 µM: IGROV1 ovarian
88.1 µM: HOP-18 NSCLC
87.3 µM: SK-OV-3 ovarian
81.1 µM: LOX IMVI melanoma
42.5 µM: M14 melanoma
43.9 µM: UACC-62 melanoma
43.2 µM: HCC-2998 colon
89.4 µM: NCI-H23 lung
46.9 µM: SK-MEL-28 melanoma
92.6 µM: MALME-3M melanoma
91.3 µM: HOP-92 NSCLC
69 µM: SR leukemia
8.68 µM: HL-60(TB) leukemia
88.3 µM: EKVX NSCLC
not listed: 786-0 renal | A498 renal | A549 NSCLC | DMS 273 small cell lung | KM20L2 colon | NCI-H522 lung | RPMI-8226 leukemia | SF-539 CNS | SK-MEL-5 melanoma | SNB-75 CNS | TK-10 renal
> 100 µM: all other assays above

CC(=O)OC1COC(N2C(=O)C(=O)c3ccccc32)C(OC(C)=O)C1OC(C)=O (stereo unspecified)
not listed: HCT-116 colon | HL-60(TB) leukemia | HOP-18 NSCLC | OVCAR-5 ovarian
> 100 µM: all other assays above
